Where a name gives a salt, the structure may show the parent alone. Read-outs that look alike come from different tables or passages of the source. Where no end group is shown, it is not given here.
Legend:
YAP/TAZ [1] = assay: YAP/TAZ nuclear localization in IMR-90 and other mesenchymal cells (cardiac, dermal fibroblasts, hepatic stellate cells); format: cell-based, human; conditions: for YAP/TAZ nuclear localization in confluent fibroblasts, ligand alone: ET-1 100 nM, LPA 10 μM, 5-HT 1 μM, 2 hours (FIG. 2c); for YAP/TAZ nuclear localization: fibroblasts on stiff matrix (plastic), IMR-90 cells treated 2 hours (FIG. 2a)
Description: FIGS. 2A-2E Dopamine Receptor D1 agonism blocks YAP/TAZ nuclear localization. 2a. Selective agonists of dopamine receptor D1 with varying efficacy inhibit YAP/TAZ nuclear localization; this effect can be overcome by treatment with a DRD1 receptor antagonist (SCH 39166, 3 μM), (Dihydrexidine, 10 μM). IMR-90 cells treated 2 hours prior to fixation. N=4 (****p<0.0001 vs. 0.1% DMSO vehicle control). Scale bar represents 100 μm. 2b. Consistent with DRD1 expression, DHX inhibits YAP/TAZ only in fibroblasts (IPF-FBs) but not in epithelial (NHEpCs) or endothelial (NHMVECs) cells. N=4 (****p<0.0001 vs. 0.1% DMSO vehicle control) 2c. YAP/TAZ localization is induced through multiple ligands which stimulate receptors coupled to Galphαi/q/12, endothelin 1 (ET-1: 100 nM), lysophosphatidic acid (LPA: 10 μM), and serotonin (5-HT: 1 μM). In each case DHX treatment (10 μM) can reverse this effect on YAP/TAZ. IMR-90 cells plated densely onto plastic cell culture plates for 24 hours in media containing 0.1% FBS, treated for 2 hours prior to fixation. N=4 (****p<0.0001 vs. 0.1% DMSO vehicle control), (++++p<0.0001 vs. the respective stimulated agonist ET-1, LPA, or 5-HT). Scale bar represents 100 μm. 2d. cAMP measured in IPF patient-derived fibroblasts treated for 20 minutes with DHX (10 μM)+/−SCH 39166 (3 μM). N=3 (**p<0.01 vs. 0.1% DMSO vehicle control). 2e. Phosphorylation of YAP by Rho-kinase inhibitor Y27632 (20 μM), direct cAMP stimulator Forskolin (10 μM), or DHX (10 μM). IMR-90 cells cultured for 24 hours in media containing 0.1% FBS, treated 2 hours prior to fixation. N=3 (***p<0.001 vs. 0.1% DMSO vehicle control).
FIGS. 6A-6C DHX inhibits YAP/TAZ localization in fibroblasts from multiple tissues. 6a. Mesenchymal cells derived from lung (IMR-90 and IPF-FBs) hepatic stellate cells (HSC), human adult cardiac fibroblasts, (HACF) and human dermal fibroblasts (HDF) were plated densely (Confluent) or sparsely (Control and all remaining conditions) onto plastic cell culture plates for 24 hours in media containing 0.1% FBS, treated for 2 hours with Rho kinase inhibitor Y27632, adenylate cyclase activator forskolin and DHX. N=4, Cells that were positive for nuclear YAP/TAZ were quantified by automated image analysis. 6b. Time course for DHX inhibition of YAP/TAZ nuclear localization. IMR-90 cells, N=3 (***p<0.001 vs. 0.1% DMSO vehicle control). 6c. […] N=3.
(§1) ImmunofluorescenceMicroscopy: Cells were plated into 96 well plates (Corning 3603) in their specific growth media and allowed to attach (8 hours). Media was then exchanged for the indicated conditions for each experiment. Cells were fixed in 3.7% formalin (Sigma-Aldrich), permeabilized in 0.25% Triton X-100 (Sigma-Aldrich) and then blocked with 1% BSA for 1 h. Cells or tissue sections were incubated overnight with mouse monoclonal antibody against αSMA (Sigma-Aldrich F3777), and/or a rabbit monoclonal antibody against YAP/TAZ (Cell Signaling D24E4) diluted 1:200 in PBS with 1% BSA. Cells were then washed and exposed to flourescence-conjugated secondary antibodies (Invitrogen) diluted 1:1000 and DAPI (Thermo Fisher Scientific). Images were taken with a Cytation5 (BioTek) microscope. For scoring αSMA positive cells (FIG. 3b), an observer blinded to the treatment conditions counted αSMA-positive cells using a visual threshold for bright fibrous staining; a minimum of 200 cells was counted for each condition. YAP/TAZ localization was quantified (FIG. 2, 6, 8) using Gen5 (Biotek) software. Images were taken at 4× magnification of both DAPI and YAP/TAZ staining. […] Quantification of double positive (YAP/TAZ and αSMA) cells from lung tissue sections (FIG. 4d) was performed similarly; however separate thresholds were established for both YAP/TAZ and αSMA. A minimum of 4000 cells was quantified for each mouse.

YAP/TAZ [2] = assay: YAP/TAZ nuclear localization (immunofluorescence, automated imaging) in IPF patient-derived lung fibroblasts; format: cell-based, human
Description: 27A. […] IPF patient-derived lung fibroblasts cells treated 2 hours prior to fixation with diverse dopaminergic agonists (10 μM). N=4 different patient samples. % nuclear localization of YAP/TAZ was determined using automated imaging software. Scale bar represents 100 μm. 27C. cAMP measured in IPF patient-derived fibroblasts treated for 20 minutes with DHX. N=3. 27E.
as §1

αSMA = αSMA intensity (fibroblast activation) in IPF patient-derived lung fibroblasts + TGFβ; format: cell-based, human; conditions: Homo sapiens, SMA, 1 μM + TGFβ, treated for 72 hours
Description: as §1

αSMA+ stress fibers = assay: TGFβ-induced αSMA+ stress fiber formation; format: cell-based, human; conditions: TGFβ 48 hours, then dopamine 1 μM + TGFβ 24 hours
Description: ImmunofluorescenceMicroscopy: Cells were plated into 96 well plates (Corning 3603) in their specific growth media and allowed to attach (8 hours). Media was then exchanged for the indicated conditions for each experiment. Cells were fixed in 3.7% formalin (Sigma-Aldrich), permeabilized in 0.25% Triton X-100 (Sigma-Aldrich) and then blocked with 1% BSA for 1 h. Cells or tissue sections were incubated overnight with mouse monoclonal antibody against αSMA (Sigma-Aldrich F3777), and/or a rabbit monoclonal antibody against YAP/TAZ (Cell Signaling D24E4) diluted 1:200 in PBS with 1% BSA.

[3] = tested on: IPF patient derived fibroblasts; assay: Traction Force Microscopy of IPF patient derived fibroblasts; format: cell-based, human; conditions: IPF fibroblasts on 6.4 kPa matrices
Description: Traction Force Microscopy: Traction analysis was conducted as previously described. Briefly, polyacrylamide substrates with shear moduli of 6.4 kPa were prepared, and fluorescent sulfate-modified latex microspheres (0.2 μm, 505/515 ex/em) (FluoSpheres, Life Technologies) were conjugated to the gel surfaces after treatment with 1 mg ml^−1 of dopamine hydrochloride (Sigma-Aldrich) in 50 mM HEPES solution (pH 8.5). IPF patient derived fibroblasts were plated on the gels overnight and treated as indicated before traction force measurements. Images of gel surface-conjugated fluorescent beads were acquired for each cell before and after trypsinization using a Nikon ECLIPSE Ti microscope at ×10 magnification. Traction forces were estimated by measuring bead displacement fields and computing corresponding traction fields using TractionsForAll (freely distributed program that calculates 2-D tractions exerted by an adherent cell on its substrate).

human dermal fibroblasts = assay: Profibrotic gene expression in human dermal fibroblasts +/- TGFβ; format: cell-based; conditions: 24 hours +/− 2 ng/mL TGFβ
Description: Human dermal fibroblasts treated for 24 hours+/−2 ng/mL TGFβ and D1 agonists: DHX and A68930 prior to RNA isolation. N=2. For all other in vitro experiments, cells were treated as indicated prior to RNA isolation using RNeasy Plus Mini Kit (Qiagen) according to manufacturer's instructions. Isolated RNA (250 ng) was then used to synthesize cDNA using SuperScript VILO (Invitrogen). Quantitative PCR was performed using FastStart Essential DNA Green Master (Roche) and analyzed using a LightCycler 96 (Roche). Data are expressed as a fold change by ΔΔCt relative to GAPDH. For in vivo experiments, tissue was immediately frozen, and stored at −80° C. RNA isolation, cDNA synthesis, and qPCR analysis were performed as above.

cAMP = cAMP Assay (cAMP-Glo) in lung fibroblasts; format: cell-based, human; conditions: IMR-90 lung fibroblasts (FIG. 31F-31H)
Description: cAMP Assay: IPF patient derived fibroblasts were plated in EMEM containing 10% FBS overnight. […] 20 minutes prior to cell lysis media was removed and cells were treated with “induction buffer” containing nonselective phosphodiesterase inhibitors and the indicated concentration of compound(s). Luminescence was measured on a Flexstation 3 (Molecular Devices) plate reader.

[4] = tested on: YAP/TAZ-TEAD interactions; conditions: Ref. 19; cited from earlier work
[5] = patient sample IPF-1, read-out: αSMA intensity (% of DMSO control) IPF-1
[6] = patient sample IPF-2, read-out: αSMA intensity (% of DMSO control) IPF-2
[7] = patient sample IPF-3, read-out: αSMA intensity (% of DMSO control) IPF-3
[8] = patient sample IPF-4, read-out: αSMA intensity (% of DMSO control) IPF-4

## CCCCC[C@H](O)/C=C/[C@H]1[C@H](O)CC(=O)[C@@H]1C/C=C\CCCC(=O)O [PGE2, Prostaglandin E2]
YAP/TAZ [1]; FIG. 6c
  potency of inhibition of YAP/TAZ nuclear localization, normal lung fibroblasts vs IPF-derived: reduced potency

## endothelin-1: GPCR ligand implicated in promotion of fibrosis (CSCSSLMDKECVYFCHLDIIW; ends and bridges not checked; cysteine pairing not given here; UniProt P05305 53-73, looked up)
YAP/TAZ [1]
  YAP/TAZ nuclear localization in confluent fibroblasts, ligand alone: enhance YAP/TAZ nuclear localization

## lysophosphatidic acid
YAP/TAZ [1]
  YAP/TAZ nuclear localization in confluent fibroblasts, ligand alone: enhance YAP/TAZ nuclear localization

## Oc1cc2c(c(Cl)c1O)CCNCC2c1ccccc1 (centres unmarked) [SKF-81297]
YAP/TAZ [1]
  YAP/TAZ nuclear localization: reduced nuclear localization of YAP/TAZ

## NCCc1ccc(O)c(O)c1 [Dopamine•HCl, Dopamine]
YAP/TAZ [2]; tissue culture plastic (FIG. 34A)
  YAP/TAZ nuclear localization, low density IPF fibroblasts: inhibits YAP/TAZ nuclear localization
αSMA; [5]
  activity at 1 µM: 35.2%
αSMA; [6]
  activity at 1 µM: 8.09%
αSMA; [7]
  activity at 1 µM: 26.6%
αSMA; [8]
  activity at 1 µM: 5.37%
αSMA+ stress fibers
  αSMA+ stress fiber formation in IPF-patient derived fibroblasts: reverses αSMA+ stress fiber formation
[3]
  contractile forces (traction force microscopy): attenuates IPF fibroblast contractility

## NCC1OC(c2ccccc2)Cc2c1ccc(O)c2O (centres unmarked) [A 68930•HCl]
YAP/TAZ [2]; patient sample IPF-1, 10 μM, treated 2 hours prior to fixation
  Nuclear localization (% of total cells) IPF-1: 33.13 % of total cells
YAP/TAZ [2]; patient sample IPF-2, 10 μM, treated 2 hours prior to fixation
  Nuclear localization (% of total cells) IPF-2: 30.59 % of total cells
YAP/TAZ [2]; patient sample IPF-3, 10 μM, treated 2 hours prior to fixation
  Nuclear localization (% of total cells) IPF-3: 26.82 % of total cells
YAP/TAZ [2]; patient sample IPF-4, 10 μM, treated 2 hours prior to fixation
  Nuclear localization (% of total cells) IPF-4: 10.26 % of total cells
αSMA; [5]
  activity at 1 µM: 12.4%
αSMA; [6]
  activity at 1 µM: 8.11%
αSMA; [7]
  activity at 1 µM: 3.25%
αSMA; [8]
  activity at 1 µM: 7.35%
Human dermal fibroblasts
  profibrotic gene expression in human dermal fibroblasts: blocks profibrotic gene expression

## CN1CCc2cc(Cl)c(O)cc2[C@H]2c3ccccc3CC[C@@H]21 [SCH-39166]
cAMP
  antagonism of DHX's elevation of cAMP, inhibition of YAP/TAZ nuclear localization and of YAP/TAZ target genes: block DHX's elevation of cAMP

## Oc1ccc(C2CNCCc3c2cc(O)c(O)c3Cl)cc1 (centres unmarked) [Fenoldopam•HCl, Fenoldopam]
αSMA; [5]
  activity at 1 µM: 77.3%
αSMA; [6]
  activity at 1 µM: 45.3%
αSMA; [7]
  activity at 1 µM: 69.4%
αSMA; [8]
  activity at 1 µM: 63.4%
YAP/TAZ [1]
  YAP/TAZ nuclear localization: reduced nuclear localization of YAP/TAZ

## verteporfin
[4]
  effects in models of liver fibrosis: limited beneficial effects

## CN1CCc2ccccc2Cc2[nH]c3ccccc3c2CC1 [LE-300]
cAMP
  antagonism of DHX's elevation of cAMP, inhibition of YAP/TAZ nuclear localization and of YAP/TAZ target genes: block DHX's elevation of cAMP

## NCCc1c[nH]c2ccc(O)cc12 [serotonin]
YAP/TAZ [1]
  YAP/TAZ nuclear localization in confluent fibroblasts, ligand alone: enhance YAP/TAZ nuclear localization
